In patent US10167284B2, “Spirocyclic compounds as agonists of the muscarinic M1 receptor and/or M4 receptor” (HEPTARES THERAPEUTICS LIMITED, priority 2015, dated 2019):

Assays:
[1] = biological target: T1, human muscarinic M1 receptor (Homo sapiens, UniProt P11229); assay: Alphascreen Surefire phospho-ERK1/2 functional assay, M1; assay type: cell-based; details: for EC50 / M1 % Emax cf. ACh: CHO cells stably expressing human M1; for EC50: phospho-ERK1/2, read-out: pEC50 M1 (converted); for Emax: CHO, read-out: M1 % Emax cf. ACh, CHO cells stably expressing human M1; for Emax / M1 % Emax cf. ACh: Emax relative to ACh
T1 construct: expressed in transfected cells
T1 sequence (P11229 1-460): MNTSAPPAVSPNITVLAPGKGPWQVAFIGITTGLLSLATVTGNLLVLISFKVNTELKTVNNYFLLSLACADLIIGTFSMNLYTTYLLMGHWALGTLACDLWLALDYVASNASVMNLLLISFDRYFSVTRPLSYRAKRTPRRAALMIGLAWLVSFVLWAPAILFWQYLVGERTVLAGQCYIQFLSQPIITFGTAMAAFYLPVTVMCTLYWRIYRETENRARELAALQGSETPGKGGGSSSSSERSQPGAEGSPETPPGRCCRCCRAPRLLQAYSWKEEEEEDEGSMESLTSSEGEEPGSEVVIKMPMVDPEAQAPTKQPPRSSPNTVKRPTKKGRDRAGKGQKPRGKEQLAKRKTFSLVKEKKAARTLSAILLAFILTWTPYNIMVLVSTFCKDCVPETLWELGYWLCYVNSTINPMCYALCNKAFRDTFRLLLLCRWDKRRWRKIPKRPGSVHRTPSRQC

[2] = biological target: T2, human muscarinic M2 receptor (Homo sapiens, UniProt P08172); assay: Alphascreen Surefire phospho-ERK1/2 functional assay, M2; details: for Emax: CHO, read-out: M2 % Emax cf. ACh, CHO cells stably expressing human M2; for Emax / M2 % Emax cf. ACh: Emax relative to ACh; for EC50: pEC50 M2, CHO cells stably expressing human M2; for EC50 / pEC50 M2: phospho-ERK1/2; for M2 % Emax cf. ACh / pEC50 M2: CHO cells stably expressing human M2
T2 sequence (P08172 1-466): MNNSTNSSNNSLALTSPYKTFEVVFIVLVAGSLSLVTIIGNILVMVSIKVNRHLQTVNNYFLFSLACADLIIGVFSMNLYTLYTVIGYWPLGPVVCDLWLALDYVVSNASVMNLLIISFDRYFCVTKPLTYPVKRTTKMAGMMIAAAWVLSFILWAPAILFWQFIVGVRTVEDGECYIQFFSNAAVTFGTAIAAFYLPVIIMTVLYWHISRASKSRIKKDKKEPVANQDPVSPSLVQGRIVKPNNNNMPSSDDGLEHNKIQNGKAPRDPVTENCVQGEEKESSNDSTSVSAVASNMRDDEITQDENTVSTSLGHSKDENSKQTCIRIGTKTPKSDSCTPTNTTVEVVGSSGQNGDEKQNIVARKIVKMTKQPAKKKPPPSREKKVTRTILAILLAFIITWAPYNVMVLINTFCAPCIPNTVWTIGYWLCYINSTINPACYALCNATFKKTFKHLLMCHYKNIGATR
Protocol: (§1) CHO cells stably expressing the human muscarinic M1, M2, M3 or M4 receptor were plated (25K/well) onto 96-well tissue culture plates in MEM-alpha+10% dialysed FBS. Once adhered, cells were serum-starved overnight. Agonist stimulation was performed by the addition of 5 μL agonist to the cells for 5 min (37° C.). Media was removed and 50 μL of lysis buffer added. After 15 min, a 4 μL sample was transferred to 384-well plate and 7 μL of detection mixture added. Plates were incubated for 2 h with gentle agitation in the dark and then read on a PHERAstar plate reader.
(§2) pEC50 and Emax figures were calculated from the resulting data for each receptor subtype.

[3] = biological target: human muscarinic M3 receptor (Homo sapiens, UniProt P20309); assay: Alphascreen Surefire phospho-ERK1/2 functional assay, M3; details: for Emax: CHO, read-out: M3 % Emax cf. ACh, CHO cells stably expressing human M3; for Emax / M3 % Emax cf. ACh: Emax relative to ACh; for M3 % Emax cf. ACh / pEC50 M3: CHO cells stably expressing human M3; for pEC50 M3: phospho-ERK1/2
Chain of human muscarinic M3 receptor (P20309 whole entry): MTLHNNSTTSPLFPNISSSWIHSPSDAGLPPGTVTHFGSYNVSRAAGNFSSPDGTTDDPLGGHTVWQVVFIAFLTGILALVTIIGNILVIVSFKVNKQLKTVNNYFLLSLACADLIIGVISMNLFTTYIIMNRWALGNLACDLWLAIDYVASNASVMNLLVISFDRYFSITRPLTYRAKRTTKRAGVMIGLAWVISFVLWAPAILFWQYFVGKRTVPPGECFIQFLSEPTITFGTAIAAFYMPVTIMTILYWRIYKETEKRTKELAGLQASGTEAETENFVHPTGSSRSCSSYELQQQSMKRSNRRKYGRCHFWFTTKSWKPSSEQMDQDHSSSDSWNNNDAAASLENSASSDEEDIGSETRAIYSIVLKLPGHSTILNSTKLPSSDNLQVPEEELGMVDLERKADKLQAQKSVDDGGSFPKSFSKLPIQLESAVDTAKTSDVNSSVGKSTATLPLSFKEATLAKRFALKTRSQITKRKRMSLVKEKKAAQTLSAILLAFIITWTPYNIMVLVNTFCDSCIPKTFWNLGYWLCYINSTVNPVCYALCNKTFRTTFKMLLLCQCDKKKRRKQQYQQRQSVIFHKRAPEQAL
Protocol: as §1, §2

[4] = biological target: T3, human muscarinic M4 receptor (Homo sapiens, UniProt P08173); assay: Alphascreen Surefire phospho-ERK1/2 functional assay, M4; assay type: cell-based; details: for EC50: read-out: pEC50 M4 (converted); for Emax: CHO, read-out: M4 % Emax cf. ACh, CHO cells stably expressing human M4; for Emax / M4 % Emax cf. ACh: Emax relative to ACh
T3 construct: expressed in transfected cells
T3 sequence (P08173 1-479): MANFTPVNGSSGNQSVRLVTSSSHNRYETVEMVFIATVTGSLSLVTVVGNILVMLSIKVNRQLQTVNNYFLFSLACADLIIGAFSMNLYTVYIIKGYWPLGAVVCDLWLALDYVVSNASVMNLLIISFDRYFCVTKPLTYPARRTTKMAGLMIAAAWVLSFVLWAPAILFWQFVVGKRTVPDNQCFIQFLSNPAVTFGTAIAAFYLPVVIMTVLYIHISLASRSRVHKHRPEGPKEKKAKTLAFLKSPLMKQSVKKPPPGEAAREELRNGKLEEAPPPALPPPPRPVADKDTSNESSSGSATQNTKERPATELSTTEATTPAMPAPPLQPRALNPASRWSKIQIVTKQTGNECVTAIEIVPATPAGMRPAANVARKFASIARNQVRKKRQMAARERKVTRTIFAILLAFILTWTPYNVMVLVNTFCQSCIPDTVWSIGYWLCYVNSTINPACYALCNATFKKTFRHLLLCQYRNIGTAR

[5] = CHO cells stably expressing human M4, phospho-ERK1/2
[6] = CHO cells stably expressing human M4

SMILES	EC50 [1] [nM]	Emax [1] [%]	Emax [2] [%]	EC50 [2] [nM]	EC50 [3] [nM]	Emax [3] [%]	EC50 [4, 5] [nM]	Emax [4] [%]	M1 % Emax cf. ACh [1]	M2 % Emax cf. ACh [2]	pEC50 M2 [2]	M3 % Emax cf. ACh [3]	pEC50 M3 [3]	M4 % Emax cf. ACh [4, 6]	pEC50 M4 [4, 5]
CCOC(=O)N1CCC2(CC(N3CCC4(CC3)OC(=O)N(C3CC3)C4CC)C2)C1 (mixture of isomers) [4-47 mixture of diastereomers]	1000	86	7	> 20000	> 20000	7	63.1	106	–	–	–	–	–	–	–
CCOC(=O)N1CCC2(CC(N3CCC4(CC3)OC(=O)N(OC)C4CC)C2)C1 (mixture of isomers) [4-48 mixture of diastereomers]	501	56	3	> 20000	> 20000	11	100	77	–	–	–	–	–	–	–
CCOC(=O)N1CC2(CCC(N3CCC4(CC3)OC(=O)NC4CC)C2)C1 (mixture of isomers) [8-1 mixture of diastereomers]	10	70	0	> 20000	> 20000	2	2	70	–	–	–	–	–	–	–
CCOC(=O)N1CC2(CCC(N3CCC4(CC3)OC(=O)N(CC)C4CC)C2)C1 (mixture of isomers) [8-2 mixture of diastereomers]	200	65	1	> 20000	> 20000	1	10	30	–	–	–	–	–	–	–
CCOC(=O)N1CC2(CC(N3CCC4(CC3)OC(=O)N(CC)C4CC)C2)C1 (racemic) [2-2 racemic]	2000	74	71	> 20000	> 20000	27	200	69	–	–	–	–	–	–	–
CCOC(=O)N1CC2(CCC(N3CCC4(CC3)CNC(=O)C4)C2)C1 (racemic) [7-1 racemic]	5.01	26	0	> 20000	> 20000	4	> 20000	14	–	–	–	–	–	–	–
CCOC(=O)N1CC2(CCC(N3CCC4(CC3)OC(=O)N(CC)C4(C)C)C2)C1 (racemic) [8-4 racemic]	200	63	4	> 20000	> 20000	1	7.94	91	–	–	–	–	–	–	–
CCOC(=O)N1CC2(CC(N3CCC4(CC3)OC(=O)NC4CC)C2)C1 (single isomer, unassigned) [2-1 Isomer 1]	251	–	–	–	–	–	–	–	(107) %	(15) %	<4.7	(9) %	<4.7	(117) %	6.9
CCOC(=O)N1CC2(CC(N3CCC4(CC3)OC(=O)NC4CC)C2)C1 (single isomer, unassigned) [2-1 Isomer 2]	158	106	15	> 20000	> 20000	–	126	108	–	–	–	(4) %	–	–	–
COC(=O)N1CCC2(CC(N3CCC4(CC3)CNC(=O)C4)C2)C1 (single isomer, unassigned) [3-1 Isomer 2]	79.4	87	14	> 20000	> 20000	20	100	50	–	–	–	–	–	–	–
CCOC(=O)N1CCC2(CC(N3CCC4(CC3)CNC(=O)C4)C2)C1 (single isomer, unassigned) [3-2 Isomer 2]	15.8	87	3	> 20000	> 20000	2	20	50	–	–	–	–	–	–	–
CCOC(=O)N1CCC2(CC(N3CCC4(CC3)CC(=O)NC4C)C2)C1 (single isomer, unassigned) [3-3 Isomer 2]	158	97	2	> 20000	> 20000	7	200	81	–	–	–	–	–	–	–
CCC1NC(=O)CC12CCN(C1CC3(CCN(C(=O)OC)C3)C1)CC2 (single isomer, unassigned) [3-4 Isomer 3]	79.4	–	–	> 20000	> 20000	24	25.1	–	(101) %	(8) %	–	–	–	(71) %	–
CCC1NC(=O)CC12CCN(C1CC3(CCN(C(=O)OC)C3)C1)CC2 (single isomer, unassigned) [3-4 Isomer 4]	63.1	–	–	–	–	–	6.31	–	(90) %	(20) %	<4.7	(17) %	<4.7	(76) %	–
CCOC(=O)N1CCC2(CC(N3CCC4(CC3)CC(=O)NC4CC)C2)C1 (single isomer, unassigned) [3-5 Isomer 2]	25.1	96	16	> 20000	> 20000	10	3.16	108	–	–	–	–	–	–	–
COC(=O)N1CCC2(CC(N3CCC4(CC3)CC(=O)NC4Cc3ccccc3)C2)C1 (single isomer, unassigned) [3-7 Isomer 2]	25.1	101	11	> 20000	> 20000	14	79.4	57	–	–	–	–	–	–	–
CCOC(=O)N1CCC2(CC(N3CCC4(CC3)CC(=O)NC4Cc3ccccc3)C2)C1 (single isomer, unassigned) [3-8 Isomer 2]	12.6	110	33	> 20000	> 20000	53	79.4	98	–	–	–	–	–	–	–
CCOC(=O)N1CCC2(CC(N3CCC4(CNC(=O)C4)C(F)C3)C2)C1 (single isomer, unassigned) [3-9 Isomer 2]	794	62	4	> 20000	> 20000	14	> 20000	47	–	–	–	–	–	–	–
COC(=O)N1CCC2(CC(N3CCC4(CC3)CNC(=O)O4)C2)C1 (single isomer, unassigned) [4-1 Isomer 2]	126	104	18	> 20000	> 20000	11	126	86	–	–	–	–	–	–	–
[2H]C([2H])([2H])OC(=O)N1CCC2(CC(N3CCC4(CC3)CNC(=O)O4)C2)C1 (single isomer, unassigned) [4-2 Isomer 2]	251	113	13	> 20000	> 20000	42	200	76	–	–	–	–	–	–	–
